This assay has as its system PI3K-mutated BT474 breast cancer xenograft tumors. As to the kind of experiment: In vivo xenograft mouse model, GPX4-iKO BT474. To be noted: nu/nu mice, CCI-779 2 mg/kg daily i.p., Dox diet induces GPX4 knockout. How it is done: FIG. 6 A-F. Combination of mTORC1 inhibition with ferroptosis induction leads to tumor regression in vivo. (A) CRISPR/Cas9-mediated, Dox-induced GPX4 knockout (GPX4-iKO) in BT474 cells, monitored by western blot. (B) Images of resected tumors from mice xenografted with GPX4-iKO BT474 cells. Groups of mice were treated with CCI-779 and/or Dox as indicated (n=6 per group). See Methods for detail. (C) Representative haematoxylin and eosin (H&E) and immunostaining images of GPX4, Ki67, PTGS2 and pS235/236 S6, all counterstained with haematoxylin (blue), are shown from sections of xenografted tumors. Scale bar, 50 μm. (D) Growth curves of BT474 tumors of each group. […]
FIG. 13 A-E. Combination of mTORC1 inhibition with ferroptosis induction leads to tumor regression. […] (B) BT474 tumor volume was measured every day for each mouse. […] (E) PC-3 tumor volume was measured every day for each mouse. […]
17-β-estradiol 60-day release pellets were implanted subcutaneously into the left flank 7 days before tumor inoculation. […] Tumor growth was monitored regularly via external caliper measurements. […] The maximum width (X) and length (Y) of the tumor were measured every day and the volume (V) was calculated using the formula: V=(X2Y)/2. Tumor growth was monitored over time. For all experiments, mice were sacrificed at a pre-determined endpoint. […]

SMILES strings stand for the structures.

For the compound `CO[C@H]1C[C@@H]2CC[C@@H](C)[C@@](O)(O2)C(=O)C(=O)N2CCCC[C@H]2C(=O)O[C@H]([C@H](C)C[C@@H]2CC[C@@H](OC(=O)C(C)(CO)CO)[C@H](OC)C2)CC(=O)[C@H](C)/C=C(\C)[C@@H](O)[C@@H](OC)C(=O)[C@H](C)C[C@H](C)/C=C/C=C/C=C/1C` [CCI-779, Temsirolimus], the tumor growth entry was “decelerated tumor growth”.

Source of the values: US20230414626A1, “INDUCTION OF FERROPTOSIS FOR CANCER THERAPY” (Memorial Sloan Kettering Cancer Center, priority 2020, published 2023).
